± gives the expanded uncertainty stated by the source.
Conditions: Liquid, Vibrating tube method

For `FC(C(F)(F)F)C(F)(F)F` [1,1,1,2,3,3,3-heptafluoropropane], the mass density (333.15 K, 33156 kPa) was 1451.3 ± 1.7 kg/m3, the mass density (333.15 K, 33196 kPa) was 1451.6 ± 1.7 kg/m3 and the mass density (333.15 K, 33224 kPa) was 1451.7 ± 1.7 kg/m3. It also gave a mass density (333.15 K, 33268 kPa) of 1451.7 ± 1.7 kg/m3, a mass density (333.15 K, 33317 kPa) of 1451.9 ± 1.7 kg/m3 and a mass density (333.15 K, 33346 kPa) of 1452 ± 1.7 kg/m3. The mass density (333.15 K, 33391 kPa) was 1452.2 ± 1.7 kg/m3, the mass density (333.15 K, 33421 kPa) was 1452.4 ± 1.7 kg/m3 and the mass density (333.15 K, 33465 kPa) was 1452.5 ± 1.7 kg/m3. It also gave a mass density (333.15 K, 33498 kPa) of 1452.4 ± 1.7 kg/m3, a mass density (333.15 K, 33532 kPa) of 1452.7 ± 1.7 kg/m3 and a mass density (333.15 K, 33566 kPa) of 1452.8 ± 1.7 kg/m3. For the same molecule, the mass density (333.15 K, 33615 kPa) was 1453 ± 1.7 kg/m3, the mass density (333.15 K, 33639 kPa) was 1453.3 ± 1.7 kg/m3 and the mass density (333.15 K, 33683 kPa) was 1453.3 ± 1.7 kg/m3. It also gave a mass density (333.15 K, 33713 kPa) of 1453.3 ± 1.7 kg/m3, a mass density (333.15 K, 33753 kPa) of 1453.7 ± 1.7 kg/m3 and a mass density (333.15 K, 34447 kPa) of 1456.1 ± 1.7 kg/m3. It also gave a mass density (333.15 K, 34493 kPa) of 1456.2 ± 1.7 kg/m3, a mass density (333.15 K, 34519 kPa) of 1456.4 ± 1.7 kg/m3 and a mass density (333.15 K, 34541 kPa) of 1456.4 ± 1.7 kg/m3. The mass density (333.15 K, 34553 kPa) was 1456.4 ± 1.7 kg/m3, the mass density (333.15 K, 34564 kPa) was 1456.6 ± 1.7 kg/m3 and the mass density (333.15 K, 34570 kPa) was 1456.7 ± 1.7 kg/m3. The mass density (333.16 K, 8979 kPa) was 1316.3 ± 1.5 kg/m3, the mass density (333.16 K, 9012 kPa) was 1316.5 ± 1.5 kg/m3 and the mass density (333.16 K, 9767 kPa) was 1323.1 ± 1.5 kg/m3. The mass density (333.16 K, 9793 kPa) was 1323.2 ± 1.5 kg/m3, the mass density (333.16 K, 9821 kPa) was 1323.4 ± 1.5 kg/m3 and the mass density (333.16 K, 9857 kPa) was 1323.7 ± 1.5 kg/m3. It also gave a mass density (333.16 K, 9885 kPa) of 1324 ± 1.5 kg/m3, a mass density (333.16 K, 9911 kPa) of 1324.3 ± 1.5 kg/m3 and a mass density (333.16 K, 9936 kPa) of 1324.5 ± 1.5 kg/m3. It also gave a mass density (333.16 K, 9961 kPa) of 1324.7 ± 1.5 kg/m3, a mass density (333.16 K, 9986 kPa) of 1324.9 ± 1.5 kg/m3 and a mass density (333.16 K, 10016 kPa) of 1325.2 ± 1.5 kg/m3. It also gave a mass density (333.16 K, 10042 kPa) of 1325.3 ± 1.5 kg/m3, a mass density (333.16 K, 10070 kPa) of 1325.4 ± 1.5 kg/m3 and a mass density (333.16 K, 10094 kPa) of 1325.8 ± 1.5 kg/m3. It also gave a mass density (333.16 K, 10119 kPa) of 1326.1 ± 1.5 kg/m3, a mass density (333.16 K, 10148 kPa) of 1326.3 ± 1.5 kg/m3 and a mass density (333.16 K, 10178 kPa) of 1326.6 ± 1.5 kg/m3. The mass density (333.16 K, 10203 kPa) was 1326.6 ± 1.5 kg/m3, the mass density (333.16 K, 10236 kPa) was 1326.9 ± 1.5 kg/m3 and the mass density (333.16 K, 10265 kPa) was 1327.2 ± 1.5 kg/m3. It also gave a mass density (333.16 K, 10287 kPa) of 1327.4 ± 1.5 kg/m3, a mass density (333.16 K, 10312 kPa) of 1327.6 ± 1.5 kg/m3 and a mass density (333.16 K, 10338 kPa) of 1327.9 ± 1.5 kg/m3. The mass density (333.16 K, 10367 kPa) was 1328.1 ± 1.5 kg/m3, the mass density (333.16 K, 10397 kPa) was 1328.3 ± 1.5 kg/m3 and the mass density (333.16 K, 10430 kPa) was 1328.5 ± 1.5 kg/m3. It also gave a mass density (333.16 K, 10457 kPa) of 1328.7 ± 1.5 kg/m3, a mass density (333.16 K, 10483 kPa) of 1329 ± 1.5 kg/m3 and a mass density (333.16 K, 10515 kPa) of 1329.4 ± 1.5 kg/m3. It also gave a mass density (333.16 K, 10537 kPa) of 1329.3 ± 1.5 kg/m3, a mass density (333.16 K, 10570 kPa) of 1329.8 ± 1.5 kg/m3 and a mass density (333.16 K, 10596 kPa) of 1329.9 ± 1.5 kg/m3. The mass density (333.16 K, 10624 kPa) was 1330.1 ± 1.5 kg/m3, the mass density (333.16 K, 10654 kPa) was 1330.5 ± 1.5 kg/m3 and the mass density (333.16 K, 10839 kPa) was 1331.8 ± 1.5 kg/m3. It also gave a mass density (333.16 K, 10866 kPa) of 1332.1 ± 1.5 kg/m3, a mass density (333.16 K, 10896 kPa) of 1332.3 ± 1.5 kg/m3 and a mass density (333.16 K, 10918 kPa) of 1332.5 ± 1.5 kg/m3. It also gave a mass density (333.16 K, 10947 kPa) of 1332.7 ± 1.5 kg/m3, a mass density (333.16 K, 10979 kPa) of 1332.9 ± 1.5 kg/m3 and a mass density (333.16 K, 11112 kPa) of 1334 ± 1.5 kg/m3. The mass density (333.16 K, 11141 kPa) was 1334.3 ± 1.5 kg/m3, the mass density (333.16 K, 11160 kPa) was 1334.5 ± 1.5 kg/m3 and the mass density (333.16 K, 11186 kPa) was 1334.6 ± 1.5 kg/m3. For the same molecule, the mass density (333.16 K, 11212 kPa) was 1334.9 ± 1.5 kg/m3, the mass density (333.16 K, 11245 kPa) was 1335.1 ± 1.5 kg/m3 and the mass density (333.16 K, 11275 kPa) was 1335.4 ± 1.5 kg/m3. The mass density (333.16 K, 11298 kPa) was 1335.5 ± 1.5 kg/m3, the mass density (333.16 K, 11320 kPa) was 1335.7 ± 1.5 kg/m3 and the mass density (333.16 K, 11353 kPa) was 1336 ± 1.5 kg/m3. For the same molecule, the mass density (333.16 K, 11388 kPa) was 1336.3 ± 1.5 kg/m3, the mass density (333.16 K, 11415 kPa) was 1336.6 ± 1.5 kg/m3 and the mass density (333.16 K, 11450 kPa) was 1336.7 ± 1.5 kg/m3. It also gave a mass density (333.16 K, 11481 kPa) of 1337 ± 1.5 kg/m3, a mass density (333.16 K, 11534 kPa) of 1337.4 ± 1.5 kg/m3 and a mass density (333.16 K, 11792 kPa) of 1339.3 ± 1.5 kg/m3. The mass density (333.16 K, 11824 kPa) was 1339.6 ± 1.5 kg/m3, the mass density (333.16 K, 11847 kPa) was 1339.8 ± 1.5 kg/m3 and the mass density (333.16 K, 11870 kPa) was 1339.9 ± 1.5 kg/m3. For the same molecule, the mass density (333.16 K, 11897 kPa) was 1340.1 ± 1.5 kg/m3, the mass density (333.16 K, 11937 kPa) was 1340.4 ± 1.5 kg/m3 and the mass density (333.16 K, 11965 kPa) was 1340.6 ± 1.5 kg/m3. It also gave a mass density (333.16 K, 11989 kPa) of 1340.8 ± 1.5 kg/m3, a mass density (333.16 K, 12024 kPa) of 1341.1 ± 1.5 kg/m3 and a mass density (333.16 K, 12062 kPa) of 1341.3 ± 1.5 kg/m3. For the same molecule, the mass density (333.16 K, 12090 kPa) was 1341.4 ± 1.5 kg/m3, the mass density (333.16 K, 12120 kPa) was 1341.8 ± 1.5 kg/m3 and the mass density (333.16 K, 12147 kPa) was 1342 ± 1.5 kg/m3. It also gave a mass density (333.16 K, 12167 kPa) of 1342.2 ± 1.5 kg/m3, a mass density (333.16 K, 12202 kPa) of 1342.3 ± 1.5 kg/m3 and a mass density (333.16 K, 12226 kPa) of 1342.6 ± 1.5 kg/m3. It also gave a mass density (333.16 K, 12261 kPa) of 1342.8 ± 1.5 kg/m3, a mass density (333.16 K, 12289 kPa) of 1343 ± 1.5 kg/m3 and a mass density (333.16 K, 12321 kPa) of 1343.4 ± 1.5 kg/m3. For the same molecule, the mass density (333.16 K, 12345 kPa) was 1343.5 ± 1.5 kg/m3, the mass density (333.16 K, 12385 kPa) was 1343.8 ± 1.5 kg/m3 and the mass density (333.16 K, 12416 kPa) was 1344 ± 1.5 kg/m3.

Reference: the NIST ThermoML archive (doi:10.1021/je700260f)
